From US7972611B2, “Fungus-induced inflammation and eosinophil degranulation” (Mayo Foundation for Medical Education and Research, priority 2005, dated 2011)
Starred links: 1 amine or outer side, 2 acyl side, 3 side chain; linkers in the order of their positions; H or OH if unused. Residues, ends and D or L forms follow the SMILES beside them. CO = O=C([*:1])[*:2]

B1: Calpastatin (protein, UniProt P20810 1-708, looked up)
Calpastatin: MNPTETKAIPVSQQMEGPHLPNKKKHKKQAVKTEPEKKSQSTKLSVVHEKKSQEGKPKEHTEPKSLPKQASDTGSNDAHNKKAVSRSAEQQPSEKSTEPKTKPQDMISAGGESVAGITAISGKPGDKKKEKKSLTPAVPVESKPDKPSGKSGMDAALDDLIDTLGGPEETEEENTTYTGPEVSDPMSSTYIEELGKREVTIPPKYRELLAKKEGITGPPADSSKPIGPDDAIDALSSDFTCGSPTAAGKKTEKEESTEVLKAQSAGTVRSAAPPQEKKRKVEKDTMSDQALEALSASLGTRQAEPELDLRSIKEVDEAKAKEEKLEKCGEDDETIPSEYRLKPATDKDGKPLLPEPEEKPKPRSESELIDELSEDFDRSECKEKPSKPTEKTEESKAAAPAPVSEAVCRTSMCSIQSAPPEPATLKGTVPDDAVEALADSLGKKEADPEDGKPVMDKVKEKAKEEDREKLGEKEETIPPDYRLEEVKDKDGKPLLPKESKEQLPPMSEDFLLDALSEDFSGPQNASSLKFEDAKLAAAISEVVSQTPASTTQAGAPPRDTSQSDKDLDDALDKLSDSLGQRQPDPDENKPMEDKVKEKAKAEHRDKLGERDDTIPPEYRHLLDDNGQDKPVKPPTKKSEDSKKPADDQDPIDALSGDLDSCPSTTETSQNTAKDKCKKAASSSKAPKNGGKAKDSAKTTEETSKPKDD
B2: papain: cysteine protease (protein, UniProt P00784 134-345, looked up)
Papain: IPEYVDWRQKGAVTPVKNQGSCGSCWAFSAVVTIEGIIKIRTGNLNEYSEQELLDCDRRSYGCNGGYPWSALQLVAQYGIHYRNTYPYEGVQRYCRSREKGPYAAKTDGVRQVQPYNEGALLYSIANQPVSVVLEAAGKDFQLYRGGIFVGPCGNKVDHAVAAVGYGPNYILIKNSWGTGWGENGYIRIKRGTGNSYGVCGLYTSSFYPVKN
B3: Der f1: natural mite allergen protease (protein, UniProt P16311 99-321, looked up)
Peptidase 1: TSACRINSVNVPSELDLRSLRTVTPIRMQGGCGSCWAFSGVAATESAYLAYRNTSLDLSEQELVDCASQHGCHGDTIPRGIEYIQQNGVVEERSYPYVAREQRCRRPNSQHYGISNYCQIYPPDVKQIREALTQTHTAIAVIIGIKDLRAFQHYDGRTIIQHDNGYQPNYHAVNIVGYGSTQGDDYWIVRNSWDTTWGDSGYGYFQAGNNLMMIEQYPYVVIM

Each molecule was assayed on eosinophils (assay: not given). Conditions: not given.
Type: cell-based, human
Procedure: FIG. 9. […] Alternaria extract, trypsin, or PMA was pretreated with pepstatin A agarose, control agarose, or APMSF, and added to the PAR-2 peptide substrate (Panel A) or eosinophils (Panel B).
(§1) To monitor eosinophil function in response to extracts from Alternaria, degranulation of human eosinophils was measured by quantitating released eosinophil-derived neurotoxin (EDN) and/or MBP. In brief, freshly isolated eosinophils were suspended in HBSS with 25 mM HEPES and 0.01% gelatin at 5×10^5 cells/mL. Eosinophils and stimuli were incubated in 96-well tissue culture plates for 3 hours at 37° C. and 5% CO^2. Cell-free supernatants were stored at −20° C. A specific RIA quantitated eosinophil degranulation by measuring the concentration of EDN in the supernatants.

Row | Molecule | eosinophil degranulation (EDN release) induced by Alternaria extract | Alternaria-induced eosinophil [Ca2+]i response and degranulation, sensitivity to pertussis toxin
1 | O=C(O)CN(CCN(CC(=O)O)CC(=O)O)CC(=O)O [EDTA] | inhibited | –
2 | pertussis toxin | – | sensitive

Same assay, conditions: 3 hours at 37° C.

Row | Molecule | eosinophil degranulation (EDN release) induced by Alternaria extract
3 | CC(C)[C@H](NC(=O)[C@H](CCCNC(=N)N)NC(=O)N[C@@H](Cc1ccccc1)C(=O)O)C(=O)N[C@H](C=O)CCCNC(=N)N [Antipain] ({Phe-CO}-Arg-Val-Arg-aldehyde) | did not inhibit
4 | CC(C)C[C@H](NC(=O)[C@@H](O)[C@H](N)Cc1ccccc1)C(=O)O [Bestatin] | did not inhibit
5 | CCCCCCCCCCCCCCCCCCNC(=O)OCC(COC(=O)N(Cc1cccc[n+]1CC)C(C)=O)OC (stereo not drawn) [CV6209] | inhibited
6 | CCN(CC)CCCC(C)Nc1ccnc2cc(Cl)ccc12 (stereo not drawn) [Chloroquine] | did not inhibit
7 | CC(C)C[C@H](NC(=O)[C@@H](NC(=O)N[C@@H](Cc1ccccc1)C(=O)O)[C@@H]1CCN=C(N)N1)C(=O)N[C@H](C=O)Cc1ccccc1 [Chymostatin] | did not inhibit
8 | COc1cc2c(c(OC)c1OC)-c1ccc(OC)c(=O)cc1[C@@H](NC(C)=O)CC2 [Colchitin] | did not inhibit
9 | C=C1[C@@H](C)[C@H]2[C@H](Cc3ccccc3)NC(=O)[C@]23OC(=O)/C=C/[C@H](O)CCC[C@@H](C)C/C=C/[C@H]3[C@@H]1O [Cytochalasin B] | did not inhibit
10 | CC(C)C[C@H](NC(=O)[C@H]1O[C@@H]1C(=O)O)C(=O)NCCCCN=C(N)N [E64] | did not inhibit
11 | O=C(O)CN(CCOCCOCCN(CC(=O)O)CC(=O)O)CC(=O)O [EGTA] | inhibited
12 | C=CC[C@@H]1/C=C(\C)C[C@H](C)C[C@H](OC)[C@H]2O[C@@](O)(C(=O)C(=O)N3CCCC[C@H]3C(=O)O[C@H](/C(C)=C/[C@@H]3CC[C@@H](O)[C@H](OC)C3)[C@H](C)[C@@H](O)CC1=O)[C@H](C)C[C@@H]2OC [FK 506] | did not inhibit
13 | CN(C)CCCn1cc(C2=C(c3c[nH]c4ccccc34)C(=O)NC2=O)c2ccccc21 [GF109203X] | did not inhibit
14 | O=c1c(-c2ccc(O)cc2)coc2cc(O)cc(O)c12 [Genistein] | did not inhibit
15 | [La] [Lanthunum] | inhibited
16 | CC(=O)N[C@@H](CC(C)C)C(=O)N[C@@H](CC(C)C)C(=O)N[C@H](C=O)CCCNC(=N)N [Leupeptin] | did not inhibit
17 | COc1cccc(-c2cc(=O)c3ccccc3o2)c1N [PD98059] | did not inhibit
18 | Cl.NCCc1ccc(S(=O)(=O)F)cc1 [Pefabloc SC] | did not inhibit
19 | CC(C)C[C@H](NP(=O)(O)O[C@@H]1O[C@@H](C)[C@H](O)[C@@H](O)[C@H]1O)C(=O)N[C@@H](Cc1c[nH]c2ccccc12)C(=O)O [Phosphoramidon] | did not inhibit
20 | Cn1cc(C2=C(c3cn(CCCSC(=N)N)c4ccccc34)C(=O)NC2=O)c2ccccc21 [Ro-31-8220] | did not inhibit
21 | CC(=O)c1c(O)c(C)c(O)c(Cc2c(O)c3c(c(C(=O)/C=C/c4ccccc4)c2O)OC(C)(C)C=C3)c1O [Rottelrin] | did not inhibit
22 | C[S+]([O-])c1ccc(-c2nc(-c3ccncc3)c(-c3ccc(F)cc3)[nH]2)cc1 (stereo not drawn) [SB203580] | did not inhibit
23 | Cc1ccc(S(=O)(=O)N[C@@H](CCCCN)C(=O)CCl)cc1 [TLCK] | did not inhibit
24 | NCCCCCCNS(=O)(=O)c1cccc2c(Cl)cccc12 [W-7] | did not inhibit
25 | COC[C@H]1OC(=O)c2coc3c2[C@@]1(C)C1=C(C3=O)[C@@H]2CCC(=O)[C@@]2(C)C[C@H]1OC(C)=O [Wortmannin] | did not inhibit
26 | Aprotinin | did not inhibit
27 | Jasplakinlide | inhibited
28 | heparin | inhibited
29 | B1 | did not inhibit

Each molecule was assayed on human eosinophils (assay: Eosinophil degranulation (EDN release) and activation by fungal extracts and proteins). Conditions: through PAR-2.
Type: cell-based
Procedure: FIG. 5. Effects of fungi on eosinophil degranulation. Eosinophils were incubated with culture extracts of various fungi for 3 hours.
FIG. 21. Effects of Trichoderma xylanase on eosinophil degranulation (Panel A). Effects of Trichoderma xylanase on IL-5 production in mouse airways (Panel B). Panel A: Eosinophils were incubated with various concentrations of Trichoderma xylanase for 3 hours. EDN concentrations in the supernatants were measured by RIA as an indicator of degranulation. Panel B: Naive BALB/c mice were exposed intranasally to various doses of Trichoderma xylanase. After 12 hours, BAL fluids were collected and the concentrations of IL-5 were measured by ELISA. Mean±range, n=2.
FIG. 25. Partial characterization of Alternaria extract. A, Before incubation with eosinophils, aliquots of 100 μg/mL Alternaria and 10 ng/mL IL-5 were heated at 37, 56, or 100° C. for 30 min or were treated at 4° C. for 30 min. Eosinophils were incubated in duplicate with these treated stimuli for 3 hours at 37° C. […] The molecular weight calibration of the column is shown above the elution profile.
The following was performed to determine whether human eosinophils have an innate capacity to respond to environmental fungal organisms. Human eosinophils were incubated with extracts from common environmental airborne fungi.
as §1

Row | Molecule | activation of human eosinophils by proteases
30 | B2 | activated
31 | B3 | activated

Same assay, conditions: treatment at 56° C. or lower temperatures

Row | Molecule | loss of activity to induce EDN release after treatment
32 | IL-5: cytokine | not

Same assay, conditions: treatment at 100° C.

Row | Molecule | activity to induce EDN release after heat treatment
33 | IL-5: cytokine | abolished
